Laboratory results as given in patent US5814655A, “Non-steroidal ophthalmic mixtures” (InSite Vision Incorporated, priority 1996, dated 1998).

Test: Percent of drug in suspension as a function of concentration in the formulation and pH
Format: physicochemical
[1] = pH 4.0, concentration in the formulation 1.0
[2] = pH 4.0, concentration in the formulation .001
[3] = pH 4.0, concentration in the formulation .01
[4] = pH 4.0, concentration in the formulation .1
[5] = pH 4.0, concentration in the formulation 5.0
[6] = pH 5.0, concentration in the formulation 1.0
[7] = pH 5.0, concentration in the formulation 5.0
[8] = pH 5.0, concentration in the formulation .001
[9] = pH 5.0, concentration in the formulation .01
[10] = pH 5.0, concentration in the formulation .1
[11] = pH 6.0, concentration in the formulation 1.0
[12] = pH 6.0, concentration in the formulation 5.0
[13] = pH 6.0, concentration in the formulation .001
[14] = pH 6.0, concentration in the formulation .01
[15] = pH 6.0, concentration in the formulation .1
[16] = pH 7.0, concentration in the formulation 1.0
[17] = pH 7.0, concentration in the formulation 5.0
[18] = pH 7.0, concentration in the formulation .001
[19] = pH 7.0, concentration in the formulation .01
[20] = pH 7.0, concentration in the formulation .1

SMILES: O=C(O)Cc1ccccc1Nc1c(Cl)cccc1Cl [Diclofenac Sodium, sodium ortho-(2,6-dichlorophenyl)aminophenylacetate acid]
- diclofenac in suspension (in words) (below a pH of about 6.8, formulation containing 1% diclofenac sodium): virtually all
- Percent Diclofenac Sodium in Suspension (pH 3.7, concentration in the formulation 1.0): 100%
- Percent Diclofenac Sodium in Suspension (pH 3.7, concentration in the formulation .001): 100%
- Percent Diclofenac Sodium in Suspension (pH 3.7, concentration in the formulation .01): 100%
- Percent Diclofenac Sodium in Suspension (pH 3.7, concentration in the formulation .1): 100%
- Percent Diclofenac Sodium in Suspension [1]: 99%
- Percent Diclofenac Sodium in Suspension [2]: 99%
- Percent Diclofenac Sodium in Suspension [3]: 99%
- Percent Diclofenac Sodium in Suspension [4]: 99%
- Percent Diclofenac Sodium in Suspension (pH 4.6, concentration in the formulation 1.0): 99%
- Percent Diclofenac Sodium in Suspension (pH 4.6, concentration in the formulation .001): 90%
- Percent Diclofenac Sodium in Suspension (pH 4.6, concentration in the formulation .01): 99%
- Percent Diclofenac Sodium in Suspension (pH 4.6, concentration in the formulation .1): 99%
- Percent Diclofenac Sodium in Suspension (pH 5.2, concentration in the formulation 1.0): 99%
- Percent Diclofenac Sodium in Suspension (pH 5.2, concentration in the formulation .001): 20%
- Percent Diclofenac Sodium in Suspension (pH 5.2, concentration in the formulation .01): 92%
- Percent Diclofenac Sodium in Suspension (pH 5.2, concentration in the formulation .1): 99%
- Percent Diclofenac Sodium in Suspension (pH 5.9, concentration in the formulation 1.0): 99%
- Percent Diclofenac Sodium in Suspension (pH 5.9, concentration in the formulation .001): 0%
- Percent Diclofenac Sodium in Suspension (pH 5.9, concentration in the formulation .01): 50%
- Percent Diclofenac Sodium in Suspension (pH 5.9, concentration in the formulation .1): 95%
- Percent Diclofenac Sodium in Suspension (pH 6.3, concentration in the formulation 1.0): 98%
- Percent Diclofenac Sodium in Suspension (pH 6.3, concentration in the formulation .001): 0%
- Percent Diclofenac Sodium in Suspension (pH 6.3, concentration in the formulation .01): 0%
- Percent Diclofenac Sodium in Suspension (pH 6.3, concentration in the formulation .1): 76%
- Percent Diclofenac Sodium in Suspension (pH 6.5, concentration in the formulation 1.0): 93%
- Percent Diclofenac Sodium in Suspension (pH 6.5, concentration in the formulation .001): 0%
- Percent Diclofenac Sodium in Suspension (pH 6.5, concentration in the formulation .01): 0%
- Percent Diclofenac Sodium in Suspension (pH 6.5, concentration in the formulation .1): 35%
- Percent Diclofenac Sodium in Suspension (pH 7.3, concentration in the formulation 1.0): 64%
- Percent Diclofenac Sodium in Suspension (pH 7.3, concentration in the formulation .001): 0%
- Percent Diclofenac Sodium in Suspension (pH 7.3, concentration in the formulation .01): 0%
- Percent Diclofenac Sodium in Suspension (pH 7.3, concentration in the formulation .1): 0%

SMILES: CC(C(=O)O)c1ccc(-c2ccccc2)c(F)c1 (stereo not shown) [Flurbiprofen]
- Percent Flurbiprofen in Suspension [1]: 99%
- Percent Flurbiprofen in Suspension [5]: 99%
- Percent Flurbiprofen in Suspension [2]: 20%
- Percent Flurbiprofen in Suspension [3]: 92%
- Percent Flurbiprofen in Suspension [4]: 99%
- Percent Flurbiprofen in Suspension [6]: 99%
- Percent Flurbiprofen in Suspension [7]: 99%
- Percent Flurbiprofen in Suspension [8]: 0%
- Percent Flurbiprofen in Suspension [9]: 33%
- Percent Flurbiprofen in Suspension [10]: 93%
- Percent Flurbiprofen in Suspension [11]: 80%
- Percent Flurbiprofen in Suspension [12]: 98%
- Percent Flurbiprofen in Suspension [13]: 0%
- Percent Flurbiprofen in Suspension [14]: 0%
- Percent Flurbiprofen in Suspension [15]: 0%
- Percent Flurbiprofen in Suspension [16]: 24%
- Percent Flurbiprofen in Suspension [17]: 92%
- Percent Flurbiprofen in Suspension [18]: 0%
- Percent Flurbiprofen in Suspension [19]: 0%
- Percent Flurbiprofen in Suspension [20]: 0%

SMILES: CC(C(=O)O)c1ccc(C(=O)c2cccs2)cc1 (stereo not shown) [Suprofen]
- Percent Suprofen in Suspension [1]: 98%
- Percent Suprofen in Suspension [5]: 99%
- Percent Suprofen in Suspension [2]: 0%
- Percent Suprofen in Suspension [3]: 0%
- Percent Suprofen in Suspension [4]: 77%
- Percent Suprofen in Suspension [6]: 95%
- Percent Suprofen in Suspension [7]: 99%
- Percent Suprofen in Suspension [8]: 0%
- Percent Suprofen in Suspension [9]: 0%
- Percent Suprofen in Suspension [10]: 45%
- Percent Suprofen in Suspension [11]: 54%
- Percent Suprofen in Suspension [12]: 95%
- Percent Suprofen in Suspension [13]: 0%
- Percent Suprofen in Suspension [14]: 0%
- Percent Suprofen in Suspension [15]: 0%
- Percent Suprofen in Suspension [16]: 0%
- Percent Suprofen in Suspension [17]: 68%
- Percent Suprofen in Suspension [18]: 0%
- Percent Suprofen in Suspension [19]: 0%
- Percent Suprofen in Suspension [20]: 0%
